pIC50: −log10 of the molar value.

For data set [1], the system named is conscious telemetric mice. The data set is described as follows: Telemetric ECG in conscious mice, consecutive i.p. dosing. It is filed as in vivo, mice (NRMI). On the procedure: Male mice (NRMI) were anesthetized with a gas mixture of isoflurane, nitrous oxide and oxigen. Leads connected to a telemetry transmitter (TA10EA-F20, DSI, St. Paul, USA) were fixed by suture in the xiphoid and ventral neck region. The telemetry transmitter was placed under the skin on the back. Wounds were closed in layers and the animals were allowed to recover for at least 1 week.
On the day of the experiment the animals receive consecutive doses of vehicle i.p. at 60 min dosing intervals. ECG tracings (12 s duration) was recorded using the Data Sciences A.R.T. system. After completion of the experiment ECGs were analyzed automatically by Data Sciences ECG software (DSI, St. Paul, USA). QT and QRS intervals were measured manually in the stored ECGs. QTc was calculated from the QT interval and the corresponding heart rate using Bazett's formula. Heart rate was taken from the online analysis, given by the DSI Labpro and DSI A.R.T. systems (DSI, St. Paul, USA). Finally, ECG intervals were transferred to an Excel spreadsheet, checked for plausibility, and converted into 15 min averages.

The next data set concerns the target hERG potassium channel (Homo sapiens, UniProt Q12809).
Data set [2] relates to isolated guinea pig right ventricular papillary muscle. The data set is described as follows: Ex-vivo functional refractory period in isolated guinea pig papillary muscle. To be noted: conc 10^−5 mol/l. The source says:
(§1) The compounds were checked for their effect on the force of contraction, stimulation threshold and for the Functional Refractory Period (FRP) in isolated rat left atria (Rat LA). Rat left atria functionally express the Kv4.3 ion channel, producing the Ito current of the action potential. […] The guinea pig action potential is dominated by hERG like ion channels for the refractory currents. Consequently, activity of hERG channels in vivo should be seen in GP papillary muscle preparations.
Method: Rat LA (Same Method Applies to GP Pap. Muscle)
Left atria were mounted vertically in a two-chambered organ bath containing 100 ml of buffer solution (in mM: NaH2PO4 0.6, MgSO4 0.6, KCl 4.7, NaHCO3 25, glucose 4.5, NaCl 120, CaCl2 2.4). The solution was saturated with and circulated by a gas mixture containing 95% O2 and 5% CO2. The temperature was kept constant at 30° C. […] The isometric force of the preparations was measured by force transducers, connected to amplifiers, documented by a pen recorder and fed into a computer for evaluation. Force of contraction (FC), threshold stimulus (TS) and the functional refractory period (FRP) were measured at baseline (pre), 20 min after addition of compound, and after washout at the end of the experiment. Threshold stimulus, representing excitability of the tissue, was assessed by varying the voltage applied for electrical stimulation. […]

In the next data set the test system is isolated rat left atria. The data set is described as follows: Ex-vivo functional refractory period in isolated rat left atria. To be noted: conc 10^−5 mol/l.
From the text: as §1
Left atria were mounted vertically in a two-chambered organ bath containing 100 ml of buffer solution (in mM: NaH2PO4 0.6, MgSO4 0.6, KCl 4.7, NaHCO3 25, glucose 4.5, NaCl 120, CaCl2 2.4). […] The isometric force of the preparations was measured by force transducers, connected to amplifiers, documented by a pen recorder and fed into a computer for evaluation. Force of contraction (FC), threshold stimulus (TS) and the functional refractory period (FRP) were measured at baseline (pre), 20 min after addition of compound, and after washout at the end of the experiment. Threshold stimulus, representing excitability of the tissue, was assessed by varying the voltage applied for electrical stimulation. […] The functional refractory period, representing the time needed for repolarization, was assessed by applying extra stimuli at varying time intervals from the preceding regular pacing stimulus. […]

hERG potassium channel, sequence (Q12809 whole entry): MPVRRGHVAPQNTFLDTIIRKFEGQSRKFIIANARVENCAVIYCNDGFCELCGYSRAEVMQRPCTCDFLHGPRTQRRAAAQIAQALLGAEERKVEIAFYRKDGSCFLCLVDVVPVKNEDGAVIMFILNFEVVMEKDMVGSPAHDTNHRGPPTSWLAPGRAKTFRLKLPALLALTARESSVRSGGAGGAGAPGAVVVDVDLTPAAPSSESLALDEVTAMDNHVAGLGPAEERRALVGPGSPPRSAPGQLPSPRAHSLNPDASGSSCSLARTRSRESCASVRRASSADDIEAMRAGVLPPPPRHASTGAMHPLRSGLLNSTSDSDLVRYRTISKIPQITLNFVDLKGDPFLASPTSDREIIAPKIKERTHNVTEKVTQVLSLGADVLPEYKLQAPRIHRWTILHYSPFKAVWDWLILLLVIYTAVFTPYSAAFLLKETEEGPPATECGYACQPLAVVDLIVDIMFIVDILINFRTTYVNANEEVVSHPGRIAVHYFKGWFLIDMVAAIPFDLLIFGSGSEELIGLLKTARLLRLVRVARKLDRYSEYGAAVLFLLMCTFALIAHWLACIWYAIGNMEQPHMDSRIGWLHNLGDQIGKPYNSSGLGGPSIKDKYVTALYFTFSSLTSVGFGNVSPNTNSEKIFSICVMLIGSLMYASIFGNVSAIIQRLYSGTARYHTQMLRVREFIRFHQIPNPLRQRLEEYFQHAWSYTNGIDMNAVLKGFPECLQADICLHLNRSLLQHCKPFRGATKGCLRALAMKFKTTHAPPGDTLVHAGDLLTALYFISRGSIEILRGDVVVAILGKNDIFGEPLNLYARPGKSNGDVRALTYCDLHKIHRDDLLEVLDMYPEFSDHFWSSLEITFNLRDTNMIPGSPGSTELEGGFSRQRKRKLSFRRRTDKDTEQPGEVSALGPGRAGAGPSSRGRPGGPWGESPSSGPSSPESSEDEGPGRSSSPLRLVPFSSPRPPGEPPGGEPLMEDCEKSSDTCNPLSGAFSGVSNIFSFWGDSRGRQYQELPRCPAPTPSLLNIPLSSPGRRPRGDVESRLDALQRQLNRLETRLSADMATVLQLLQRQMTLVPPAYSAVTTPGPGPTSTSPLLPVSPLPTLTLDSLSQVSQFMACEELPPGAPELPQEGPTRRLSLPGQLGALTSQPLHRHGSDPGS
From the text for hERG potassium channel: For this experiment HEK 293 T-REx HERG cells (#23) were used. This cell line made by IonGate is characterized by the inducible expression of the hERG gene. The T-REx™ System (Invitrogen, Karlsruhe, Germany) is a tetracycline-regulated mammalian expression system that uses regulatory elements from the E. coli Tn10-encoded tetracycline (Tet) resistance operon. In the absence of Tet the expression is repressed. Tetracycline regulation in the T-REx™ System is based on the binding of tetracycline to the Tet repressor and derepression of the promoter controlling expression of the hERG gene. Addition of Tet to the cell culture media results in expression of the hERG potassium channel.
To construct the HEK 293 T-REx HERG cell line, the hERG gene was ligated into the inducible expression vector pcDNA4/TO (→pc4TO-HERG) and transfected into HEK 293 T-REx cells (this cell line stably expresses the Tet repressor and was purchased at Invitrogen). Stable cell clones were isolated after selection with Blasticidin (5 μg/ml) and Zeocin™ (300 μg/ml). The clones were electrophysiological characterized after induction with 1 μg/ml Tet.
Experiments were performed using the patch clamp set-up. Technical equipment needed for manipulation of the cells was placed on a vibration-isolated table and shielded with a Faraday cage to minimize electrical noise. The amplifier and control system were placed in a rack outside the Faraday cage. The system consisted of an EPC9 or EPC10 patch clamp amplifier (HEKA, Lambrecht, Germany), and the perfusion system DADVC8 (ALA Scientific, New York, USA) controlled by the Pulse software package (HEKA, Lambrecht, Germany) installed on a personal computer.
The cells used for this experiment were kept in continuous culture under standard conditions (37° C., air supplemented with 5% CO2). The HEK 293 T-REx HERG cells were kept in minimal essential medium (MEM) supplemented with 100 U/ml Penicillin, 100 μg/ml Streptomycin, 10% fetal calf serum (FCS), 1% non-essential amino acids (NEAA), 2.5 μg/ml amphotericin, 300 μg/ml Zeocin™ and 5 μg/ml Blasticidin. Cells were passed every 3-4 days after detachment using a Trypsin solution. The quality of the cultured cells was guaranteed by vitality and contamination tests.
At least 18 hours prior to electrophysiological experiments the cells were detached by application of iced PBS (phosphate buffered saline) or Trypsin and replated on cover slips. 1 μg/ml Tet was added to the cells to induce hERG expression.
Activity of the cardiac hERG channel was investigated using the patch clamp technique in its whole cell mode. This means that the current needed for clamping the whole cell expressing the K^+-channel protein to a specific potential was measured. The pipettes used for patch clamping were made of borosilicate glass. Measurements were performed at room temperature (20-25° C.). In each experiment (i.e. each cell) only one concentration of the compound was investigated—no cumulative dosages were performed. Each cell acted as its own control. The effect of the compounds on hERG mediated currents was investigated at one concentration (10 μM) with two replicates each (c=1, n=2).
Between voltage pulses the cell was clamped to a holding potential of −80 mV (inside).
(b) and (c) were used to characterize the properties of the hERG channel and to check the quality of the individual patch clamp experiment (voltage control). Each test protocol consisted of 6 segments.

The pIC50 is −log10 of the IC50, conventionally taken in molar units. Higher therefore signals a small IC50. As to “5-chloro-benzofuran-2- carboxylic acid 2,4- dimethoxy- benzylamide [Compound 2]”, the “maximum prolongation of QTc” value in data set [1] (15 μmol/kg i.p., highest dose tested, Bazett, n=5) worked out at 33 ms. In data set [1] (15 μmol/kg i.p., highest dose tested, n=5), the “maximum prolongation of QT” value was 12 ms. Also, in data set [1] (3-15 μmol/kg i.p.), the “Heart rate (result in words)” value is “minor and not significant decrease”; the “Locomotor activity (result in words)” value is listed as “reproducible rise after each of the subsequent injections”; the “PQ and QRS (result in words)” value is “did not show dose-dependent changes”. Moreover, at hERG potassium channel, the pIC50 is 4.78 and the “Ratio hERG/Kv4.3” value is reported as 9.6. For the same substance, the “dFRP Guinea Pig” value in data set [2] worked out at 0 ms. Further, in the data set on isolated rat left atria, the “dFRP Rat” value is reported as 17 ms.

The values are drawn from patent publication US20080039442A1, “Compounds With Kv4 Ion Channel Activity” (Devgen NV, priority 2004, published 2008).
